Inhibition data for twelve compounds are collected here from paper PMC11129182, “Development of Inhibitors, Probes, and PROTAC Provides a Complete Toolbox to Study PARK7 in the Living Cell” (Journal of Medicinal Chemistry, 2024).

Assay [1] deals with T1, PARK7 (Homo sapiens, UniProt Q99497).
T1 sequence (Q99497 1-189): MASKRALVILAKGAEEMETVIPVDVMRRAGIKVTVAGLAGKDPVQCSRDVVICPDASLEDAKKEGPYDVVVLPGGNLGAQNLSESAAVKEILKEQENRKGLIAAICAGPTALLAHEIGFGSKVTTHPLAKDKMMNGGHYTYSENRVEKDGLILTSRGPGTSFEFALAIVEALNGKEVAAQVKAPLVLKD
The assay is described as follows: High-throughput screen of the crude compound library, PARK7 fluorescence polarization (FP) assay with FP reagent JYQ-107. It is filed as biochemical. Conditions: 1.25 µM, crude compound library; read-out: HTS FP assay %Inhibition (1.25 µM).

In assay [2] the target is T1, PARK7. The assay is described as follows: Hit validation and pure-compound testing in the PARK7 FP assay with JYQ-107. It is filed as biochemical. Particulars: for inhibition at 0.25 µM: read-out: % Inhibition 0.25 µM; for inhibition at 0.5 µM: read-out: % Inhibition 0.5 µM.

Each structure is given as a SMILES string. Where two headings read alike, the source gives them in different places.

In the case of `N#CN1CC[C@@H](C(=O)Nc2nc3c(s2)CN(C(=O)c2cc(-c4ccc(Cl)s4)[nH]n2)CC3)C1` [Compound 64], on PARK7 [1], the inhibition at 1.25 µM is 90%. At PARK7 [2] (crude compounds), the inhibition at 0.25 µM is 33.1%, the inhibition at 0.5 µM worked out at 63.2% and testing at 1 µM gave an inhibition of 89.5%.
In the case of `N#CN1CC[C@@H](C(=O)Nc2nc3c(s2)CN(C(=O)c2cn(CCc4ccccc4)nn2)CC3)C1` [Compound 76], the inhibition at 1.25 µM at PARK7 [1] is 91.3%. For the same compound, at PARK7 [2] (crude compounds), the inhibition at 0.25 µM was found to be 54.4%, the inhibition at 0.5 µM turned out to be 78% and the inhibition at 1 µM is 92.1%.
For the compound `CCC1(Cn2cc(C(=O)N3CCc4nc(NC(=O)[C@@H]5CCN(C#N)C5)sc4C3)nn2)COC1` [Compound 83], the inhibition at 1.25 µM at PARK7 [1] was determined as 92.3%. Moreover, at PARK7 [2] (crude compounds), the inhibition at 0.25 µM amounted to 47.6%, the inhibition at 0.5 µM was found to be 73.1% and the inhibition at 1 µM was determined as 92.7%.
The like results for `N#CN1CC[C@@H](C(=O)Nc2nc3c(s2)CN(C(=O)c2cccc(COc4cccc(F)c4)c2)CC3)C1` [Compound 110] were, in that order, 94%, 56.4%, 78.2% and 93.5%.
With `Cc1nc(-c2cnn(C)c2)sc1C(=O)N1CCc2nc(NC(=O)[C@@H]3CCN(C#N)C3)sc2C1` [Compound 112], the inhibition at 1.25 µM on PARK7 [1] turned out to be 91.1%. Besides, on PARK7 [2] (crude compounds), the inhibition at 0.25 µM was 54.6%, the inhibition at 0.5 µM was determined as 78% and 1 µM produced 93.1% inhibition.
On to `Cc1ccc(-c2cc(C(=O)N3CCc4nc(NC(=O)[C@@H]5CCN(C#N)C5)sc4C3)[nH]n2)o1` [Compound 121], for which, at PARK7 [1], the inhibition at 1.25 µM came to 90.5%. For the same compound, on PARK7 [2] (crude compounds), the inhibition at 0.25 µM turned out to be 52%, the inhibition at 0.5 µM is 77.6% and the inhibition at 1 µM was 93.8%.
On to `N#CN1CC[C@@H](C(=O)Nc2nc3c(s2)CN(C(=O)c2cccc(-c4ncn[nH]4)c2)CC3)C1` [Compound 131], for which, on PARK7 [1], the inhibition at 1.25 µM is 91%. Moreover, on PARK7 [2] (crude compounds), the inhibition at 0.25 µM was 66.1%, the inhibition at 0.5 µM stood at 84.3% and at 1 µM the inhibition was 96.9%.
Consider `COc1ccc(C(=O)N2CCc3nc(NC(=O)[C@@H]4CCN(C#N)C4)sc3C2)cc1S(=O)(=O)N1CCCCCC1` [Compound 133, (R)-N-(5-(3-(Azepan-1-ylsulfonyl)-4-methoxybenzoyl)-4,5,6,7-tetrahydrothiazolo[5,4-c]pyridin-2-yl)-1-cyanopyrrolidine-3-carboxamid], for which the inhibition at 1.25 µM at PARK7 [1] stood at 90.8%. Besides, at PARK7 [2] (crude compounds), the inhibition at 0.25 µM came to 76.3%, the inhibition at 0.5 µM came to 89.1% and testing at 1 µM gave an inhibition of 98.8%. In addition, at PARK7 [2] (pure compounds), the inhibition at 0.25 µM turned out to be 77.9% and the inhibition at 1 µM turned out to be 95.4%.
In the case of `N#CN1CC[C@@H](C(=O)Nc2nc3c(s2)CN(C(=O)c2cc(-c4ccco4)on2)CC3)C1` [Compound 139], the inhibition at 1.25 µM on PARK7 [1] is 91.5%. At PARK7 [2] (crude compounds), the inhibition at 0.25 µM is 58.2%, the inhibition at 0.5 µM is 80.9% and the inhibition at 1 µM turned out to be 94.3%.
On to `N#CN1CC[C@@H](C(=O)Nc2nc3c(s2)CN(C(=O)c2ccc(Cn4cc(Br)cn4)o2)CC3)C1` [Compound 140], for which the inhibition at 1.25 µM at PARK7 [1] amounted to 90.7%. Further, on PARK7 [2] (crude compounds), the inhibition at 0.25 µM worked out at 36.9%, the inhibition at 0.5 µM stood at 62.1% and the inhibition at 1 µM came out at 85.7%.
Regarding `N#CN1CC[C@@H](C(=O)Nc2nc3c(s2)CN(C(=O)c2cc(S(=O)(=O)NCCCN4CCCC4=O)ccc2Cl)CC3)C1` [Compound 146], at PARK7 [1], the inhibition at 1.25 µM was found to be 89.7%. Further, on PARK7 [2] (crude compounds), the inhibition at 0.25 µM stood at 45%, the inhibition at 0.5 µM turned out to be 70.4% and testing at 1 µM gave an inhibition of 90.7%.
Consider `CC(C)c1nc(Cn2cc(C(=O)N3CCc4nc(NC(=O)[C@@H]5CCN(C#N)C5)sc4C3)ccc2=O)cs1` [Compound 149], for which the inhibition at 1.25 µM on PARK7 [1] was determined as 93.2%. For the same compound, on PARK7 [2] (crude compounds), the inhibition at 0.25 µM came out at 42.9%, the inhibition at 0.5 µM turned out to be 69.6% and at 1 µM the inhibition was 89.6%.
